Values joined by “and” are separate entries in the source; they are usually repeats but may differ in a detail not shown here. Equal values may be shown once.
Assays:
[1] = Frozen (−20° C.) short-term stability in cholestyramine-treated human saliva
Experimental: Quality control samples for the evaluation of accuracy and precision and for run acceptance were prepared on the day of sample extraction. QC samples prepared in cholestyramine-treated saliva are to be prepared in small volumes for analysis. Stability for these QC samples would be limited to short-term storage (i.e., 2 days) whereas untreated human saliva would be evaluated for long-term storage.
For stability in cholestyramine-treated human saliva, samples were prepared by spiking cholestyramine-treated human saliva with each analyte at the QC-LLOQ, QC-Low, QC-Mid and QC-High levels. The samples were stored in a −20° C. freezer. After 1 day and 2 days of storage, each sample was extracted in replicates of four for analysis.

[2] = Long-term (1 month at −20° C. and −80° C.) stability in untreated human saliva; conditions: for Long-term stability in untreated human saliva: at 80° C. (sic); for % Bias QC-High / Difference from Fresh (%) QC-High / Mean concentration QC-High / Concentration QC-High / Mean at Time Zero, Fresh QCs (Batch 34), QC-High / % CV QC-High / Fresh QCs (Batch 34) Mean at Time Zero, QC-High: untreated human saliva
Experimental: For long-term stability in untreated human saliva, samples were prepared by spiking untreated human saliva with each analyte at the QC-Low and QC-High levels. The samples were stored in a −20° C. freezer and in a −80° C. freezer. After 1 month of storage, each sample was extracted in replicates of three for analysis.
A 100-μL aliquot of sample (calibration standards, quality controls, blanks, and stability samples) was transferred into a 96 well plate, according to a pre-defined layout. […] The plates were covered, vortex-mixed and then centrifuged for 5 minutes at 3200 rpm. Supernatants (350 μL each) were transferred into the corresponding wells of a clean 96 well plate and evaporated to dryness under nitrogen in a Turbovap set to 40° C. The dried residue in each well was reconstituted with 75 μL of 50:50 (v:v) methanol:water.

[3] = nominal 5.00 ng/mL, 1 Day frozen (−20° C.), cholestyramine-treated human saliva
[4] = nominal 5.00 ng/mL, 2 Days frozen (−20° C.), cholestyramine-treated human saliva
[5] = nominal 80.0 ng/mL, 1 Day frozen (−20° C.), cholestyramine-treated human saliva
[6] = nominal 80.0 ng/mL, 1 Day frozen (−20° C.), cholestyramine-treated human saliva, single determinations
[7] = nominal 80.0 ng/mL, 2 Days frozen (−20° C.), cholestyramine-treated human saliva
[8] = nominal 80.0 ng/mL, 2 Days frozen (−20° C.), cholestyramine-treated human saliva, single determinations
[9] = nominal 800 ng/mL, 1 Day frozen (−20° C.), cholestyramine-treated human saliva
[10] = nominal 800 ng/mL, 2 Days frozen (−20° C.), cholestyramine-treated human saliva
[11] = nominal 800 ng/mL, 1 month −20° C. storage
[12] = nominal 800 ng/mL, 1 month −80° C. storage
[13] = 1 Day at −20° C., nominal 0.500 ng/mL
[14] = 1 Day at −20° C., nominal 8.00 ng/mL
[15] = 1 Day at −20° C., nominal 80.0 ng/mL
[16] = 2 Days at −20° C., nominal 0.500 ng/mL
[17] = 2 Days at −20° C., nominal 8.00 ng/mL
[18] = 2 Days at −20° C., nominal 80.0 ng/mL
[19] = 1 month −20° C. storage, nominal 80.0 ng/mL
[20] = 1 month −80° C. storage, nominal 80.0 ng/mL
[21] = nominal 0.500 ng/mL, 1 Day frozen (−20° C.), cholestyramine-treated human saliva
[22] = nominal 0.500 ng/mL, 2 Days frozen (−20° C.), cholestyramine-treated human saliva
[23] = nominal 8.00 ng/mL, 1 Day frozen (−20° C.), cholestyramine-treated human saliva
[24] = nominal 8.00 ng/mL, 2 Days frozen (−20° C.), cholestyramine-treated human saliva
[25] = nominal 80.0 ng/mL, 1 month −20° C. storage
[26] = nominal 80.0 ng/mL, 1 month −80° C. storage

## C[C@H](CCC(=O)O)[C@H]1CC[C@H]2[C@@H]3[C@H](O)C[C@@H]4C[C@H](O)CC[C@]4(C)[C@H]3CC[C@]12C [Chenodeoxycholic Acid, Chenodeoxycholic acid]
[1]; human
  Short-term stability in cholestyramine-treated human saliva: up to 2 days
  Stability in Treated Human Saliva: 2 days
[1]; [3]
  % Bias QC-LLOQ: 0.4%
  Mean concentration QC-LLOQ: 5.02 ng/mL
[1]; nominal 5.00 ng/mL, 1 Day frozen (−20° C.), cholestyramine-treated human saliva, single determinations
  Concentration QC-LLOQ: 4.72 ng/mL and 5.20 ng/mL and 4.89 ng/mL and 5.28 ng/mL
[1]; [4]
  % Bias QC-LLOQ: 18.3%
  Mean concentration QC-LLOQ: 5.92 ng/mL
[1]; nominal 5.00 ng/mL, 2 Days frozen (−20° C.), cholestyramine-treated human saliva, single determinations
  Concentration QC-LLOQ: 5.73 ng/mL and 6.15 ng/mL and 5.60 ng/mL and 6.18 ng/mL
[1]; [5]
  % Bias QC-Mid: 2.5%
  Mean concentration QC-Mid: 82.0 ng/mL
[1]; [6]
  Concentration QC-Mid: 85.9 ng/mL and 84.8 ng/mL and 78.0 ng/mL and 79.2 ng/mL
[1]; [7]
  % Bias QC-Mid: 4.6%
  Mean concentration QC-Mid: 83.7 ng/mL
[1]; [8]
  Concentration QC-Mid: 80.0 ng/mL and 87.1 ng/mL and 88.9 ng/mL and 78.8 ng/mL
[1]; [9]
  % Bias QC-High: −14.7%
  Mean concentration QC-High: 683 ng/mL
[1]; nominal 800 ng/mL, 1 Day frozen (−20° C.), cholestyramine-treated human saliva, single determinations
  Concentration QC-High: 644 ng/mL and 699 ng/mL and 671 ng/mL and 717 ng/mL
[1]; [10]
  % Bias QC-High: −9.3%
  Mean concentration QC-High: 725 ng/mL
[1]; nominal 800 ng/mL, 2 Days frozen (−20° C.), cholestyramine-treated human saliva, single determinations
  Concentration QC-High: 693 ng/mL and 777 ng/mL and 725 ng/mL and 706 ng/mL
[2]
  Long-term stability in untreated human saliva: up to 1 month
[2]; at −20° C.
  Stability in Untreated Human Saliva: 1 Month
[2]; at −80° C.
  Stability in Untreated Human Saliva: 1 Month
[2]; [11]
  % Bias QC-High: −15.1%
  Difference from Fresh (%) QC-High: −13.5%
  Mean concentration QC-High: 679 ng/mL
[2]; nominal 800 ng/mL, 1 month −20° C. storage, single determinations
  Concentration QC-High: 693 ng/mL and 686 ng/mL and 659 ng/mL
[2]; [12]
  % Bias QC-High: −15.7%
  Difference from Fresh (%) QC-High: −14.1%
  Mean concentration QC-High: 674 ng/mL
[2]; nominal 800 ng/mL, 1 month −80° C. storage, single determinations
  Concentration QC-High: 701 ng/mL and 692 ng/mL and 630 ng/mL
[2]; nominal 800 ng/mL, reference for −20° C. storage
  Mean at Time Zero, Fresh QCs (Batch 34), QC-High: 785 ng/mL
[2]; nominal 800 ng/mL, reference for −80° C. storage
  Mean at Time Zero, Fresh QCs (Batch 34), QC-High: 785 ng/mL

## C[C@H](CCC(=O)NCCS(=O)(=O)O)[C@H]1CC[C@H]2[C@@H]3[C@H](O)C[C@@H]4C[C@H](O)CC[C@]4(C)[C@H]3C[C@H](O)[C@]12C [Taurocholic Acid, Taurocholic acid]
[1]; [13]
  % Bias QC-LLOQ: −1.1%
  % CV QC-LLOQ: 2.4%
  Mean concentration QC-LLOQ: 0.495 ng/mL
[1]; 1 Day at −20° C., nominal 0.500 ng/mL, run 33
  Concentration QC-LLOQ: 0.481 ng/mL and 0.509 ng/mL and 0.491 ng/mL and 0.498 ng/mL
[1]; [14]
  % Bias QC-Mid: −8.4%
  % CV QC-Mid: 1.9%
  Mean concentration QC-Mid: 7.33 ng/mL
[1]; 1 Day at −20° C., nominal 8.00 ng/mL, run 33
  Concentration QC-Mid: 7.32 ng/mL and 7.29 ng/mL and 7.51 ng/mL and 7.18 ng/mL
[1]; [15]
  % Bias QC-High: −6.6%
  % CV QC-High: 2.7%
  Mean concentration QC-High: 74.7 ng/mL
[1]; 1 Day at −20° C., nominal 80.0 ng/mL, run 33
  Concentration QC-High: 74.9 ng/mL and 77.2 ng/mL and 72.3 ng/mL and 74.5 ng/mL
[1]; [16]
  % Bias QC-LLOQ: 11.2%
  % CV QC-LLOQ: 4.1%
  Mean concentration QC-LLOQ: 0.556 ng/mL
[1]; 2 Days at −20° C., nominal 0.500 ng/mL, run 33
  Concentration QC-LLOQ: 0.538 ng/mL and 0.563 ng/mL and 0.537 ng/mL and 0.585 ng/mL
[1]; [17]
  % Bias QC-Mid: −6.7%
  % CV QC-Mid: 4.8%
  Mean concentration QC-Mid: 7.46 ng/mL
[1]; 2 Days at −20° C., nominal 8.00 ng/mL, run 33
  Concentration QC-Mid: 6.98 ng/mL and 7.47 ng/mL and 7.55 ng/mL and 7.85 ng/mL
[1]; [18]
  % Bias QC-High: −6.7%
  % CV QC-High: 2.1%
  Mean concentration QC-High: 74.7 ng/mL
[1]; 2 Days at −20° C., nominal 80.0 ng/mL, run 33
  Concentration QC-High: 73.1 ng/mL and 75.1 ng/mL and 73.8 ng/mL and 76.6 ng/mL
[1]; at −20° C.
  Short-term stability in cholestyramine-treated human saliva: up to 2 days
[1]; at −20° C., cholestyramine-treated human saliva
  Stability in Treated Human Saliva: 2 days
[2]; [19]
  % Bias QC-High: −2.9%
  % CV QC-High: 3.0%
  Difference from Fresh (%) QC-High: −4.5%
  Mean concentration QC-High: 77.7 ng/mL
[2]; 1 month −20° C. storage, nominal 80.0 ng/mL, run 35
  Concentration QC-High: 75.1 ng/mL and 78.3 ng/mL and 79.7 ng/mL
[2]; [20]
  % Bias QC-High: −2.3%
  % CV QC-High: 3.7%
  Difference from Fresh (%) QC-High: −4.0%
  Mean concentration QC-High: 78.1 ng/mL
[2]; 1 month −80° C. storage, nominal 80.0 ng/mL, run 35
  Concentration QC-High: 81.2 ng/mL and 77.8 ng/mL and 75.4 ng/mL
[2]; reference for −20° C. storage, nominal 80.0 ng/mL
  Fresh QCs (Batch 34) Mean at Time Zero, QC-High: 81.4 ng/mL
[2]; reference for −80° C. storage, nominal 80.0 ng/mL
  Fresh QCs (Batch 34) Mean at Time Zero, QC-High: 81.4 ng/mL

## C[C@H](CCC(=O)NCC(=O)O)[C@H]1CC[C@H]2[C@@H]3[C@H](O)C[C@@H]4C[C@H](O)CC[C@]4(C)[C@H]3C[C@H](O)[C@]12C [Glycocholic Acid, Glycocholic acid]
[1]; human
  Short-term stability in cholestyramine-treated human saliva: up to 2 days
  Stability in Treated Human Saliva: 2 days
[1]; [21]
  % Bias QC-LLOQ: −1.8%
  Mean concentration QC-LLOQ: 0.491 ng/mL
[1]; nominal 0.500 ng/mL, 1 Day frozen (−20° C.), cholestyramine-treated human saliva, single determinations
  Concentration QC-LLOQ: 0.485 ng/mL and 0.474 ng/mL and 0.464 ng/mL and 0.541 ng/mL
[1]; [22]
  % Bias QC-LLOQ: 8.5%
  Mean concentration QC-LLOQ: 0.542 ng/mL
[1]; nominal 0.500 ng/mL, 2 Days frozen (−20° C.), cholestyramine-treated human saliva, single determinations
  Concentration QC-LLOQ: 0.464 ng/mL and 0.541 ng/mL and 0.485 ng/mL and 0.474 ng/mL
[1]; [23]
  % Bias QC-Mid: −10.3%
  Mean concentration QC-Mid: 7.18 ng/mL
[1]; nominal 8.00 ng/mL, 1 Day frozen (−20° C.), cholestyramine-treated human saliva, single determinations
  Concentration QC-Mid: 7.20 ng/mL and 7.21 ng/mL and 7.28 ng/mL and 7.01 ng/mL
[1]; [24]
  % Bias QC-Mid: −8.3%
  Mean concentration QC-Mid: 7.34 ng/mL
[1]; nominal 8.00 ng/mL, 2 Days frozen (−20° C.), cholestyramine-treated human saliva, single determinations
  Concentration QC-Mid: 7.28 ng/mL and 7.01 ng/mL and 7.20 ng/mL and 7.21 ng/mL
[1]; [5]
  % Bias QC-High: −7.5%
  Mean concentration QC-High: 74.0 ng/mL
[1]; [6]
  Concentration QC-High: 73.2 ng/mL and 74.9 ng/mL and 73.6 ng/mL and 74.2 ng/mL
[1]; [7]
  % Bias QC-High: −6.7%
  Mean concentration QC-High: 74.7 ng/mL
[1]; [8]
  Concentration QC-High: 73.6 ng/mL and 74.2 ng/mL and 73.2 ng/mL and 74.9 ng/mL
[2]
  Long-term stability in untreated human saliva: up to 1 month
[2]; at −20° C.
  Stability in Untreated Human Saliva: 1 Month
[2]; at −80° C.
  Stability in Untreated Human Saliva: 1 Month
[2]; [25]
  % Bias QC-High: −5.9%
  Difference from Fresh (%) QC-High: −6.3%
  Mean concentration QC-High: 75.3 ng/mL
[2]; nominal 80.0 ng/mL, 1 month −20° C. storage, single determinations
  Concentration QC-High: 72.8 ng/mL and 75.6 ng/mL and 77.5 ng/mL
[2]; [26]
  % Bias QC-High: −4.8%
  Difference from Fresh (%) QC-High: −5.3%
  Mean concentration QC-High: 76.1 ng/mL
[2]; nominal 80.0 ng/mL, 1 month −80° C. storage, single determinations
  Concentration QC-High: 78.4 ng/mL and 75.9 ng/mL and 74.1 ng/mL
[2]; nominal 80.0 ng/mL, reference for −20° C. storage
  Mean at Time Zero, Fresh QCs (Batch 34), QC-High: 80.4 ng/mL
[2]; nominal 80.0 ng/mL, reference for −80° C. storage
  Mean at Time Zero, Fresh QCs (Batch 34), QC-High: 80.4 ng/mL

## C[C@H](CCC(=O)O)[C@H]1CC[C@H]2[C@@H]3CC[C@@H]4C[C@H](O)CC[C@]4(C)[C@H]3CC[C@]12C [Lithocholic Acid, Lithocholic acid]
[1]; human
  Short-term stability in cholestyramine-treated human saliva: up to 2 days
  Stability in Treated Human Saliva: 2 days

— US20200138854A1, “Method of Detecting and Quantifying Bile Acid from Saliva” (Ironwood Pharmaceuticals, Inc., priority 2017, published 2020)
